Measured values from patent US12410411B2, “Biocatalytic techniques” (HYPHA DISCOVERY LIMITED, priority 2019, dated 2025).

Tests used:
P450SeuC10 [1] = assay: Whole-cell biotransformation in E. coli expressing P450SeuC10, ferredoxinSeuF08 and ferredoxin reductaseSCF15A (Example 4B); assay type: cell-based, Streptomyces eurythermus NRRL 2539; details: for inferred yield of oxidised product (UPLC-MS): product formed from parent substrate dosed at 100 mg/L, E. coli whole cells, 100 μL screening scale; for Overall % conversion to oxidised products: SeuC10, E. coli whole cells, 0.1 mg/ml substrate, 27° C., pH 7.4
Excerpt: Cell pellets were provided as in Example 2. […] Reactions were stopped and analysed as in Example 4.

P450SeuC10 [2] = assay: Oxidase activity/spectrum testing with lyophilised material containing P450SeuC10, ferredoxinSeuF08 and ferredoxin reductaseSCF15A (Example 4A); assay type: biochemical, Streptomyces eurythermus NRRL 2539; details: for inferred yield of oxidised product (UPLC-MS): product formed from parent substrate dosed at 100 mg/L, lyophilised material, 100 μL screening scale; for Overall % conversion to oxidised products: SeuC10, lyophilised material, 0.1 mg/ml substrate, 27° C., 16-20 hours, pH 8.0, UPLC-MS
Method: Suspended cell pellets were provided as described in Example 2, containing recombinant P450, ferredoxin and ferredoxin reductase in 100 mM potassium phosphate buffer pH 8.0, 5 mM MgCl2, 5 mM TCEP, and 1 mM PMSF in a ratio of 3.0 ml of buffer per 1 g of cells. Lysed cells were produced by high pressure disruption using three cycles of 30 kpsi. Lysed material was centrifuged at 38,000×g for 40 minutes (4° C.) and the supernatant was sterilized by passing through a 0.2 micron filter to provide the cell-free enzyme preparation containing recombinant P450, ferredoxin and ferredoxin reductase.
(§1) Lyophilised material of recombinant P450, ferredoxin and ferredoxin reductase proteins was made as described in Example 3 and reconstituted in high purity water to the original volume. Biocatalysis was performed shaking at 27° C. in the following conditions: 100 mM potassium phosphate pH 8.0, 5 mM MgCl2 (both present in the reconstituted enzyme preparation) and 0.1 mg/ml substrate compound such as carbamazepine, bosentan, diclofenac, meloxicam, tivantinib or ambroxide.
(§2) Concentrations of P450, ferredoxin and ferredoxin reductase were as extracted (Example 3). Reactions were initiated by addition of 10× stock of cofactor mixture (50 mM G6P, 10 mM NADP, 10 UN/ml G6PDH) to provide a final volume of e.g., 10 μL to 90 μL for 100 μL total reaction volumes. After 16-20 hours, reactions were extracted with an equal volume of acetonitrile, centrifuged to remove precipitated proteins and conversion assessed by UPLC-MS analysis.
UPLC data were obtained as follows:
Column: Acquity UPLC BEH Shield RP18 1.7 μm 2.1 mm i.d. 50 mm length
Solvents: H2O, B: Acetonitrile, both with 0.1% Formic acid
Detector: Waters Acquity UPLC PDA (UV-Vis detection) and Waters Acquity UPLC QDA (MS)

SriC22 = assay: Substrate testing with lyophilised material containing SriC22 (Example 5, method of Example 4A); assay type: biochemical, Streptomyces rimosus NRRL 2234; details: 0.1 mg/ml substrate
Method: as §1, §2
(§3) Other cytochrome P450 enzymes were expressed as described above, and their activities tested against the same substrates as P450SeuC10 using the methods described in Example 4. The other P450s tested were: P450AluC09 from Amycolatopsis lurida NRRL 2430 (SEQ ID NO: 13, see WO 2018/091885); SriC12 from Streptomyces rimosus NRRL 2234 (SEQ ID NO: 14, see WO 2020/109776); SriC20 from Streptomyces rimosus NRRL 2234 (SEQ ID NO: 15, see WO 2020/109776); SriC22 from Streptomyces rimosus NRRL 2234 (SEQ ID NO: 16, see WO 2020/109776); and CYP107L from Streptomyces platensis DSM 40041 (SEQ ID NO: 17, see Worsch et al., Biotechnology and Bioengineering 115: 2156-2166, 2018).

SriC20 = assay: Substrate testing with lyophilised material containing SriC20 (Example 5, method of Example 4A); assay type: biochemical, Streptomyces rimosus NRRL 2234; details: 0.1 mg/ml substrate
Method: as §1, §2, §3

P450AluC09 [3] = assay: Substrate testing with lyophilised material containing P450AluC09 (Example 5, method of Example 4A); assay type: biochemical, Amycolatopsis lurida NRRL 2430; details: AluC09, lyophilised material, 0.1 mg/ml substrate
Method: as §1, §2, §3

SriC12 = assay: Substrate testing with lyophilised material containing SriC12 (Example 5, method of Example 4A); assay type: biochemical, Streptomyces rimosus NRRL 2234; details: 0.1 mg/ml substrate
Method: as §1, §2, §3

P450AluC09 [4] = assay: Substrate testing with whole cells containing P450AluC09 (Example 5, method of Example 4B); assay type: cell-based, Amycolatopsis lurida NRRL 2430; details: AluC09, whole cells, 0.1 mg/ml substrate
Method: Cell pellets were provided as in Example 2. The cell pellets were defrosted, washed with 0.85% NaCl buffer and centrifuged at 4,000 RCF, 30 minutes at 4° C. The supernatant was discarded and the pellet was flash frozen in liquid nitrogen. The pellet was allowed to defrost again and resuspended in 40 mL of buffer containing 50 mM potassium phosphate, pH 7.4, 5 mM MgCl2 and 100 mM glucose. Biocatalysis was performed shaking at 27° C. with 0.1 mg/ml substrate compound such as carbamazepine, bosentan, diclofenac, meloxicam, tivantinib, ambroxide or others as shown in Table 2. Reactions were stopped and analysed as in Example 4.
as §3

For `O=C(O)Cc1ccccc1Nc1c(Cl)cc(O)cc1Cl` [4′-hydroxydiclofenac], the “inferred yield of oxidised product (UPLC-MS)” value (from here on “inferred yield”) (P450SeuC10 [1]) was 73.4%.

`O=C(O)Cc1cc(O)ccc1Nc1c(Cl)cccc1Cl` [5-hydroxydiclofenac] was tested, and the “inferred yield” value (P450SeuC10 [1]) was 19.4%.

With `CN1C(C(=O)Nc2ncc(C(=O)O)s2)=C(O)c2ccccc2S1(=O)=O` [5′-carboxylmeloxicam] the “inferred yield” value (P450SeuC10 [2]) was 5.3%.

For `CN1C(C(=O)Nc2ncc(CO)s2)=C(O)c2ccccc2S1(=O)=O` [5′-hydroxymethylmeloxicam], the “inferred yield” value (P450SeuC10 [2]) was 28.4%.

For `CC1(C)CCC[C@]2(C)[C@H]3CCO[C@]3(C)CC[C@@H]12` [Ambroxide], the “Overall % conversion to oxidised products” value (shortened to “Overall % conversion”) (P450SeuC10 [2]) was 72.8%, the “Overall % conversion” value (SriC22) was 0% and the “Overall % conversion” value (SriC20) was 0%. The “Overall % conversion” value (P450AluC09 [3]) was 0% and the “Overall % conversion” value (SriC12) was 0%.

For `Cc1ccc(-n2nc(C(C)(C)C)cc2NC(=O)Nc2ccc(OCCN3CCOCC3)c3ccccc23)cc1` [BIRB796], the “Overall % conversion” value (P450SeuC10 [1]) was 19.3% and the “Overall % conversion” value (P450AluC09 [4]) was 5.2%.

`COc1ccccc1Oc1c(NS(=O)(=O)c2ccc(C(C)(C)C)cc2)nc(-c2ncccn2)nc1OCCO` [Bosentan] was tested, and the “Overall % conversion” value (P450SeuC10 [1]) was 87.1% and the “Overall % conversion” value (P450AluC09 [4]) was 100%.

With `CC(C)(C)[C@H]1CC[C@H](CC2=C(O)C(=O)c3ccccc3C2=O)CC1` [Buparvaquone] the “Overall % conversion” value (P450SeuC10 [1]) was 23.4% and the “Overall % conversion” value (P450AluC09 [4]) was 48.8%.

In the case of `NC(=O)N1c2ccccc2C=Cc2ccccc21` [Carbamazepine], the “Overall % conversion” value (P450SeuC10 [2]) is reported as 49.2%, the “Overall % conversion” value (SriC22) is reported as 0% and the “Overall % conversion” value (SriC20) is reported as 0%. For the same compound, the “Overall % conversion” value (P450AluC09 [3]) was 0% and the “Overall % conversion” value (SriC12) was 3.2%.

With `O=C(O)Cc1ccccc1Nc1c(Cl)cccc1Cl` [Diclofenac] the “Overall % conversion” value (P450SeuC10 [2]) was 98.3%, the “Overall % conversion” value (SriC22) was 0.9% and the “Overall % conversion” value (SriC20) was 0%. For the same compound, the “Overall % conversion” value (P450AluC09 [3]) was 89.9% and the “Overall % conversion” value (SriC12) was 33.9%.

With `C/C(=C\c1csc(C)n1)[C@@H]1C[C@@H]2O[C@]2(C)CCC[C@H](C)[C@H](O)[C@@H](C)C(=O)C(C)(C)[C@@H](O)CC(=O)O1` [Epothilone B] the “Overall % conversion” value (P450SeuC10 [2]) was 35.1%, the “Overall % conversion” value (SriC22) was 0% and the “Overall % conversion” value (SriC20) was 0%. The “Overall % conversion” value (P450AluC09 [3]) was 46% and the “Overall % conversion” value (SriC12) was 2%.

For `CC(C)(C)c1ccc(S(=O)(=O)Nc2nc(-c3ncccn3)nc(OCCO)c2Oc2ccccc2O)cc1` [O-desmethylbosentan], the “inferred yield” value (P450SeuC10 [1]) was 3.4%.

For `CCCCCCCCCCCCCCCC(=O)O` [Palmitic acid], the “Overall % conversion” value (P450SeuC10 [2]) was 70.2%, the “Overall % conversion” value (SriC22) was 0% and the “Overall % conversion” value (SriC20) was 0%. For the same compound, the “Overall % conversion” value (P450AluC09 [3]) was 28.5% and the “Overall % conversion” value (SriC12) was 35.5%.

In the case of `CCC[C@H](N[C@@H](C)C(=O)N1[C@H](C(=O)O)C[C@@H]2CCCC[C@@H]21)C(=O)OCC` [Perindopril], the “Overall % conversion” value (P450SeuC10 [1]) is reported as 14.4% and the “Overall % conversion” value (P450AluC09 [4]) is reported as 0%.

For `CC(C)c1nc(CN(C)C(=O)N[C@H](C(=O)N[C@@H](Cc2ccccc2)C[C@H](O)[C@H](Cc2ccccc2)NC(=O)OCc2cncs2)C(C)C)cs1` [Ritonavir], the “Overall % conversion” value (P450SeuC10 [1]) was 21.6% and the “Overall % conversion” value (P450AluC09 [4]) was 86.3%.

With `N#CC[C@H](C1CCCC1)n1cc(-c2ncnc3[nH]ccc23)cn1` [Ruxolitinib] the “Overall % conversion” value (P450SeuC10 [1]) was 38.6% and the “Overall % conversion” value (P450AluC09 [4]) was 34.3%.

For `CCCCNC(=O)NS(=O)(=O)c1ccc(C)cc1` [Tolbutamide], the “Overall % conversion” value (P450SeuC10 [2]) was 21%, the “Overall % conversion” value (SriC22) was 0% and the “Overall % conversion” value (SriC20) was 0%. For the same compound, the “Overall % conversion” value (P450AluC09 [3]) was 0% and the “Overall % conversion” value (SriC12) was 34%.

For `Fc1ccc(C(OCCN2CCN(CCCc3ccccc3)CC2)c2ccc(F)cc2)cc1` [Vanoxerine], the “Overall % conversion” value (P450SeuC10 [1]) was 26.5% and the “Overall % conversion” value (P450AluC09 [4]) was 0%.

`NC(=O)N1c2ccccc2C2OC2c2ccccc21` (stereo not drawn) [carbamazepine-10,11-epoxide] was tested, and the “inferred yield” value (P450SeuC10 [2]) was 49%.

`COc1ccccc1Oc1c(NS(=O)(=O)c2ccc(C(C)(C)CO)cc2)nc(-c2ncccn2)nc1OCCO` [hydroxy-bosentan] was tested, and the “inferred yield” value (P450SeuC10 [1]) was 81%.
